As a reminder, the pIC50 is −log10 of the IC50, conventionally taken in molar units. Read a high pIC50 as a low IC50.

pIC50: −log10 of the molar value.

Consider 24 compounds from patent publication US20240059703A1 (AMGEN INC., priority 2021, published 2024).

Test [1] relates to MIA PaCa-2 (human pancreatic carcinoma) cells. Briefly: Cell Viability Assay (CellTiter-Glo), MIA PaCa-2. In kind it is cell-based. Here is the method: (§1) Serially-diluted compound or DMSO was added to the cells, and plates were incubated at 37° C., 5% CO2 for 72 h. Cell viability was measured using a CellTiter-Glo® Luminescent Cell Viability Assay kit (Promega) according to the manufacturer's protocol. The luminescence signal of treated samples was normalized to DMSO control, and data were analyzed using a 4-parameter logistic model to calculate IC50 values.
(ATP-based viability assays read luminescence as a measure of living cells.)

The target in another test is KRAS G12C (Homo sapiens (Human), UniProt P01116, C118A/G12C). As to the kind of experiment: 2 h coupled exchange assay. The settings on record: Avg 2 h Coupled exchange IC50, 2 h compound pre-incubation, SOS-mediated nucleotide exchange. In kind it is biochemical. Here is the method: The term “2 h coupled exchange assay” or “20 h coupled exchange assay” as used herein refers to the assay described in the Section entitled “BIOLOGICAL EVALUATION.”

In test [2] the test system is A549 (human lung carcinoma) cells. Briefly: Cell Viability Assay (CellTiter-Glo), A549. In kind it is cell-based. Here is the method:
as §1, with “MIA PaCa-2 (human pancreatic carcinoma; ATCC CRL-1420) or A549 (human lung carcinoma; ATCC CCL-185) cells were cultured in RPMI 1640 medium containing 10% fetal bovine serum and 1× penicillin/streptomycin/L-glutamine. Cells were seeded in 384-well plates at a density of 1.67E+04 cells/mL and incubated at 37° C., 5% CO2, overnight. Serially-diluted” for “Serially-diluted”

KRAS G12C, sequence (P01116 other isoform, or with tags, fused parts or gaps G12C/C118A): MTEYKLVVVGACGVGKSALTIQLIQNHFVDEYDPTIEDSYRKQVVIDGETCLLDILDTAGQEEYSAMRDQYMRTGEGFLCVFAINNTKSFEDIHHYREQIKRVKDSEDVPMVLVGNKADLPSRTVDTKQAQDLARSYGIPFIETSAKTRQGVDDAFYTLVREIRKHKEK

Turning to `C=CC(=O)N1CC2(CCN(c3nc4c(c(-c5c(C)ccc6[nH]ncc56)c3C#N)CCC(C)(C)C4)C2)C1` (single isomer, unassigned) [Example 1-8, (P)-7,7-dimethyl-4-(5-methyl-1H-indazol-4-yl)-2-(2-(2-propenoyl)-2,6-diazaspiro[3,4]octan-6-yl)-5,6,7,8-tetrahydro-3-quinolinecarbonitrile], the pIC50 in test [1] (72 h) is 7.44; at KRAS G12C, 7.85; in test [2] (Homo sapiens, A549, 72 h) it was less than 5.30.
In the case of `C=CC(=O)N1CC2(CCN(c3nc4c(c(-c5c(C)ccc6[nH]ncc56)c3C#N)CCC(C)(C)C4)C2)C1` (single isomer, unassigned) [Example 1-10, (M)-7,7-dimethyl-4-(5-methyl-1H-indazol-4-yl)-2-(2-(2-propenoyl)-2,6-diazaspiro[3.4]octan-6-yl)-5,6,7,8-tetrahydro-3-quinolinecarbonitrile], the results for the negative-log IC50 (pIC50) (in test [1] (72 h); at KRAS G12C; in test [2] (72 h)) were 5.60, 5.17 and 5.54, respectively.
With `C=CC(=O)N1CC2(CCN(c3nc4c(c(-c5c(C)ccc6[nH]ncc56)c3C)CCC(C)(C)C4)C2)C1` (single isomer, unassigned) [Example 2-11, (P)-1-(6-(3,7,7-trimethyl-4-(5-methyl-1H-indazol-4-yl)-5,6,7,8-tetrahydro-2-quinolinyl)-2,6-diazaspiro[3.4]octan-2-yl)-2-propen-1-one], the pIC50 in test [1] (Homo sapiens, MIA PaCa-2, 72 h) was 7.28; on KRAS G12C, 7.57; in test [2] (Homo sapiens, A549, 72 h) it was 5.17.
In the case of `C=CC(=O)N1CC2(CCN(c3nc4c(c(-c5cccc6cc(O)ccc56)c3C)CCC(C)(C)C4)C2)C1` (single isomer, unassigned) [Example 2-15, (P)-1-(6-(4-(6-hydroxy-1-naphthalenyl)-3,7,7-trimethyl-5,6,7,8-tetrahydro-2-quinolinyl)-2,6-diazaspiro[3.4]octan-2-yl)-2-propen-1-one], the negative-log IC50 (pIC50) in test [1] (Homo sapiens, MIA PaCa-2, 72 h) was 6.97; against KRAS G12C, 7.18; in test [2] (Homo sapiens, A549, 72 h), less than 5.30.
With `C=CC(=O)N1CC2(CCN(c3nc4c(c(-c5ccc(F)c6sc(N)nc56)c3C)CCC(C)(C)C4)C2)C1` (single isomer, unassigned) [Example 2-17], the pIC50 was 6.81 in test [1] (Homo sapiens, MIA PaCa-2, 72 h); 7.19 against KRAS G12C; less than 5.30 in test [2] (Homo sapiens, A549, 72 h).
Take `C=CC(=O)N1CC2(CCN(c3nc4c(c(-c5c(C)ccc6cnn(C)c56)c3C)CCC(C)(C)C4)C2)C1` (single isomer, unassigned) [Example 2-21, (P)-1-(6-(4-(1,6-dimethyl-1H-indazol-7-yl)-3,7,7-trimethyl-5,6,7,8-tetrahydro-2-quinolinyl)-2,6-diazaspiro[3.4]octan-2-yl)-2-propen-1-one]: the pIC50 is 6.36 in test [1] (Homo sapiens, MIA PaCa-2, 72 h); 6.79 on KRAS G12C; less than 5.30 in test [2] (Homo sapiens, A549, 72 h).
Regarding `C=CC(=O)N1CC2(CCN(c3nc4c(c(-c5cc(O)cc6ccccc56)c3C#N)[C@H]3CC[C@@H]4C3)C2)C1` (single isomer, unassigned) [Example 2-39], the pIC50 in test [1] (72 h) is 7.17; on KRAS G12C it was 8.05; in test [2] (72 h) it was less than 5.30.
`C=CC(=O)N1CC2(CCN(c3nc4c(c(-c5cc(O)cc6ccccc56)c3C#N)[C@H]3CC[C@@H]4C3)C2)C1` (single isomer, unassigned) [Example 2-40]: the figures for the negative logarithm of the IC50 (pIC50) (in test [1] (72 h); against KRAS G12C; in test [2] (72 h)) were 6.28, 7.34 and 5.70, respectively.
`C=CC(=O)N1CC2(CCN(c3nc4c(c(-c5cc(O)cc6cccnc56)c3C#N)C[C@H]3C[C@@H]4C3(C)C)C2)C1` (single isomer, unassigned) [Example 2-45]: the pIC50 in test [1] (Homo sapiens, MIA PaCa-2, 72 h) was less than 5.30; on KRAS G12C it was 7.11; in test [2] (Homo sapiens, A549, 72 h) it was less than 5.30.
Regarding `C=CC(=O)N1CC2(CCN(c3nc4c(c(-c5cc(O)cc6ncccc56)c3C#N)C[C@H]3C[C@@H]4C3(C)C)C2)C1` (single isomer, unassigned) [Example 2-46], the pIC50 in test [1] (Homo sapiens, MIA PaCa-2, 72 h) was 6.87; against KRAS G12C, 8.22; in test [2] (Homo sapiens, A549, 72 h), less than 5.30.
On to `C=CC(=O)N1CC2(CCN(c3cc4c(c(-c5cc(O)cc6ccccc56)c3C#N)OCCC4)C2)C1` (single isomer, unassigned) [Example 2-54, (M)-8-(3-hydroxy-1-naphthalenyl)-6-(2-(2-propenoyl)-2,6-diazaspiro[3.4]octan-6-yl)-3,4-dihydro-2H-chromene-7-carbonitrile], for which the pIC50 in test [1] (Homo sapiens, MIA PaCa-2, 72 h) is 7.25; on KRAS G12C, 7.55; in test [2] (Homo sapiens, A549, 72 h) it was less than 5.30.
The corresponding values for `C=CC(=O)N1CC2(CCN(c3nc4ccccc4c(-c4c(C)ccc5[nH]ncc45)c3C)[C@H]2C)C1` (single isomer, unassigned) [Example 2-57] are 6.04, 6.97 and less than 5.30.
As for `C=CC(=O)N1CC2(CCN(c3nc4cc(F)ccc4c(-c4c(C)ccc5[nH]ncc45)c3C)[C@H]2C)C1` (single isomer, unassigned) [Example 2-58], the pIC50 in test [1] (Homo sapiens, MIA PaCa-2, 72 h) was 5.68; at KRAS G12C, 6.55; in test [2] (Homo sapiens, A549, 72 h), less than 5.30.
On to `C=CC(=O)N1CC2(CCN(c3nc4cc(F)ccc4c(-c4c(C)ccc5[nH]ncc45)c3C)[C@H]2C)C1` (single isomer, unassigned) [Example 2-61], for which the values for the negative-log IC50 (pIC50) (in test [1] (72 h); against KRAS G12C; in test [2] (72 h)) were 5.88, 6.87 and less than 5.30, respectively.
For the compound `C=CC(=O)N1CC2(CCN(c3nc4c(c(-c5cc(O)ccc5C)c3C#N)C[C@H]3C[C@@H]4C3(C)C)C2)C1` (single isomer, unassigned) [Example 2-69], the pIC50 in test [1] (Homo sapiens, MIA PaCa-2, 72 h) was 6.66; on KRAS G12C it was 7.82; in test [2] (Homo sapiens, A549, 72 h), less than 5.30.
Turning to `C=CC(=O)N1CC2(CCN(c3nc4c(c(-c5cc(O)ccc5Cl)c3C#N)C[C@H]3C[C@@H]4C3(C)C)C2)C1` (single isomer, unassigned) [Example 2-74], the negative-log IC50 (pIC50) in test [1] (Homo sapiens, MIA PaCa-2, 72 h) was 6.69; against KRAS G12C it was 7.68; in test [2] (Homo sapiens, A549, 72 h), less than 5.30.
On to `C=CC(=O)N1CC2(CCN(c3nc4c(c(-c5cc(O)ccc5C)c3Cl)COC(C)(C)C4)C2)C1` (single isomer, unassigned) [Example 2-81, (P)-1-(6-(3-chloro-4-(5-hydroxy-2-methylphenyl)-7,7-dimethyl-7,8-dihydro-5H-pyrano[4,3-b]pyridin-2-yl)-2,6-diazaspiro[3,4]octan-2-yl)-2-propen-1-one], for which the negative logarithm of the IC50 (pIC50) in test [1] (Homo sapiens, MIA PaCa-2, 72 h) is 7.24; against KRAS G12C, 7.28; in test [2] (Homo sapiens, A549, 72 h), less than 5.30.
As to `C=CC(=O)N1CC2(CCN(c3cc4c(c(-c5c(C)ccc6[nH]ncc56)c3C#N)COCC4)C2)C1` (single isomer, unassigned) [Example 2-100, (P)-8-(5-methyl-1H-indazol-4-yl)-6-(2-(2-propenoyl)-2,6-diazaspiro[3.4]octan-6-yl)-3,4-dihydro-1H-2-benzopyran-7-carbonitrile], the pIC50 is 7.60 in test [1] (Homo sapiens, MIA PaCa-2, 72 h); 7.48 against KRAS G12C; less than 5.30 in test [2] (Homo sapiens, A549, 72 h).
In the case of `C=CC(=O)N1CC2(CCN(c3nc4c(c(-c5c(C)c(Cl)cc6[nH]ncc56)c3Cl)COC(C)(C)C4)C2)C1` (single isomer, unassigned) [Example 2-109, (P)-1-(6-(3-chloro-4-(6-chloro-5-methyl-1H-indazol-4-yl)-7,7-dimethyl-7,8-dihydro-5H-pyrano[4,3-b]pyridin-2-yl)-2,6-diazaspiro[3.4]octan-2-yl)-2-propen-1-one], the pIC50 in test [1] (Homo sapiens, MIA PaCa-2, 72 h) is 8.52; against KRAS G12C, 7.64; in test [2] (Homo sapiens, A549, 72 h) it was less than 5.30.
With `C=CC(=O)N1CC2(CCN(c3nc(-c4ccccc4F)c4c(n3)N([C@H](CC(=O)NC)CC(C)C)CC4)C2)C1` (single isomer, unassigned) [Example 9], the negative-log IC50 (pIC50) is 5.77 in test [1] (Homo sapiens, MIA PaCa-2, 72 h); 6.16 on KRAS G12C; less than 5.30 in test [2] (Homo sapiens, A549, 72 h).
Turning to `C=CC(=O)N1CC2(CCN(c3nc(-c4ccccc4F)c4c(n3)N([C@H](CC(=O)NC)CC(C)C)CCC4)C2)C1` (single isomer, unassigned) [Example 10], the pIC50 in test [1] (Homo sapiens, MIA PaCa-2, 72 h) is 5.49; against KRAS G12C it was 5.77; in test [2] (Homo sapiens, A549, 72 h) it was less than 5.30.
On to `C=CC(=O)N1CC2(CCN(c3nc(-c4ccccc4F)c4ccn([C@H](CC(=O)NC)CC(C)C)c4n3)C2)C1` (single isomer, unassigned) [Example 11], for which the negative logarithm of the IC50 (pIC50) is 5.94 in test [1] (Homo sapiens, MIA PaCa-2, 72 h); 5.71 on KRAS G12C; 4.90 in test [2] (Homo sapiens, A549, 72 h).
With `C=CC(=O)N1CC2(CCN(c3nc4c(c(-c5cc(O)cc6nccnc56)c3C#N)C[C@H]3C[C@@H]4C3(C)C)C2)C1` (single isomer, unassigned) [Example 12-38], the pIC50 in test [1] (Homo sapiens, MIA PaCa-2, 72 h) was less than 5.30; on KRAS G12C it was 6.86; in test [2] (Homo sapiens, A549, 72 h), less than 5.30.
Take `C=CC(=O)N1CC2(CCN(c3nc4c(c(-c5cc(O)cc(Cl)c5C)c3C)COC(C)(C)C4)C2)C1` (single isomer, unassigned) [Example 12-43, (M)-1-(6-(4-(3-chloro-5-hydroxy-2-methylphenyl)-3,7,7-trimethyl-7,8-dihydro-5H-pyrano[4,3-b]pyridin-2-yl)-2,6-diazaspiro[3.4]octan-2-yl)prop-2-en-1-one]: the pIC50 is 7.09 in test [1] (Homo sapiens, MIA PaCa-2, 72 h); 7.59 against KRAS G12C; less than 5.30 in test [2] (Homo sapiens, A549, 72 h).
